Earlier results on five compounds are cited in US8563051B2, “Herbal composition for weight management” (InQpharm Sdn Bhd, priority 2005, dated 2013).

Read-outs that look alike come from different tables or passages of the source.

For data set [1] the following is noted: doses in the range of 1 to 5 grams a day.
Data set [2] has as its system Ehrlich ascites tumor cell. Particulars: in vitro.
For data set [3] the following is noted: 8-week human clinical study, 26 subjects.
The conditions of data set [4]: human clinical weight loss trial.
The conditions of data set [5]: human clinical trial; blood levels not measured.
The conditions of data set [6]: rodents.

Consider `O=C(O)CC(O)(C(=O)O)C(O)C(=O)O` (single isomer, unassigned; (-)) [HCA, (−)hydroxycitric acid], for which the safety assessment result in data set [1] is “no relevant safety issues”.
On to `C[C@H]1[C@H](C)CC[C@]2(C(=O)O)CC[C@]3(C)C(=CC[C@@H]4[C@@]5(C)C[C@@H](O)[C@H](O)C(C)(C)[C@@H]5CC[C@]43C)[C@H]12` [Corosolic acid, 2-hydroxyursolic acid], for which, in data set [2], the glucose transport activity entry is reported as “stimulate significant glucose transport activity”. The “glucose tolerance and blood sugar levels” value in data set [3] is “improved glucose tolerance and improved blood sugar levels”.
For `O=C([O-])CC(O)(C(=O)[O-])C(O)C(=O)[O-].[Ca+2].[K+]` (stereo not drawn) [calcium and potassium hydroxycitrate], the weight loss result in data set [4] is recorded as “shown to be effective”.
In the case of `O=C([O-])C[C@@](O)(C(=O)[O-])[C@H](O)C(=O)[O-].O=C([O-])C[C@@](O)(C(=O)[O-])[C@H](O)C(=O)[O-].[Ca+2].[Ca+2].[Ca+2]` [calcium salt of hydroxycitric acid], the weight loss result in data set [5] is “ineffective for weight loss”.
On to sodium salt of hydroxycitric acid, for which, in data set [6], the “food intake and weight” value is “reduce food intake and cause weight loss”.
